Source: patent US12590106B2, “Spiromacrocyclic orexin 2 receptor agonists” (H. Lundbeck A/S, priority 2023, dated 2026)

Target: T1, human Ox2R (Homo sapiens, UniProt O43614)
T1 construct: The gene encoding hOx2R was subcloned into the expression plasmid pcDNA5/FRT/TO; expressed in transfected cells; host or cells: CHO Flp-In cells (pcDNA5/FRT/TO with pOG44 Flp recombinase vector, hygromycin B selection)
T1 sequence (O43614 1-444): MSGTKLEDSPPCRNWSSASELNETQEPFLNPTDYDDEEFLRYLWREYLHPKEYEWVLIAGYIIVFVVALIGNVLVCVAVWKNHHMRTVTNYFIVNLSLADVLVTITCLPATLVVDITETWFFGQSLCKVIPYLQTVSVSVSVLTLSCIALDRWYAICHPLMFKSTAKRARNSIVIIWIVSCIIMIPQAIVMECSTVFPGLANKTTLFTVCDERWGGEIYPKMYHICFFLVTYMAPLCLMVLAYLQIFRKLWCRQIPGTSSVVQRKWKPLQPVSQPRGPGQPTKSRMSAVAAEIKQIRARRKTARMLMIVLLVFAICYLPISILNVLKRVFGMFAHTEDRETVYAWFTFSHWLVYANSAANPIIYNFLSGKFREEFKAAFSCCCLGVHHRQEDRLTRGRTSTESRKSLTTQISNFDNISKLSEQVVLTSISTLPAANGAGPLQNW
Experiment: Measurement of OX2R agonist activity (cell-based calcium release assay)
Settings: hOx2R-CHO Flp-In cells, n≥2 tests; for EC50: intracellular calcium, read-out: EC50; for Emax (%) / Emax: normalized to assay buffer (0%) and 10 μM Danavorexton (100%); for Emax: read-out: Emax (%)
Summary of the method: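 CHO Flp-In cells stably expressing human Ox2R, dye-loaded 1 h at 37 °C in HBSS/20 mM HEPES pH 7.4 with 2.5 mM probenecid and 10 mM CaCl2, then stimulated with compound.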

Row | EC50 [nM] | Emax [%] | SMILES | Emax (%)
1 | 0.65 | 100 | CS(=O)(=O)N[C@H]1CC[C@@]2(Cc3cc(ccc3F)-c3c(F)ccc(F)c3OCc3coc2n3)C1 [Example 27, N-[(1′S,14R)-3,6,17-trifluorospiro[8,12-dioxa-21-azatetracyclo[14.3.1.110,13.02,7]henicosa-1(20),2,4,6,10,13(21),16,18-octaene-14,3′-cyclopentane]-1′-yl]methanesulfonamide] | –
2 | 0.2 | 96 | CS(=O)(=O)N[C@H]1CC[C@@]2(Cc3ccc(F)c(c3)-c3cc(F)cc(F)c3OCc3coc2n3)C1 [Example 69, N-[(1′S,14R)-4,6,19-trifluorospiro[8,12-dioxa-21-azatetracyclo[14.3.1.110,13.02,7]henicosa-1(19),2,4,6,10,13(21),16(20),17-octaene-14,3′-cyclopentane]-1′-yl]methanesulfonamide] | –
3 | 15 | 95 | CS(=O)(=O)N[C@H]1CC[C@@]2(Cc3cccc(c3)-c3cccc(c3)OCc3coc2n3)C1 [Example 48, N-[(1′S,13R)-spiro[7,11-dioxa-20-azatetracyclo[13.3.1.12,6.19,12]henicosa-1(19),2,4,6(21),9,12(20),15,17-octaene-13,3′-cyclopentane]-1′-yl]methanesulfonamide] | –
4 | 3 | 100 | CS(=O)(=O)N[C@H]1CC[C@@]2(CO[C@H]3CC[C@H](CC3)c3ccccc3OCc3noc2n3)C1 [Example 64, N-[(1s,1′S,14R,17s)-spiro[8,12,16-trioxa-11,22-diazatetracyclo[15.2.2.110,13.02,7]docosa-2,4,6,10,13(22)-pentaene-14,3′-cyclopentane]-1′-yl]methanesulfonamide] | –
5 | 0.36 | 100 | [2H]C1([2H])Oc2ccccc2-c2cc(ccc2F)C[C@@]2(CC[C@H](NS(C)(=O)=O)C2)c2nc1co2 [Example 5, N-[(1′S,14R)-9,9-dideuterio-19-fluoro-spiro[8,12-dioxa-21-azatetracyclo[14.3.1.110,13.02,7]henicosa-1(19),2,4,6,10,13(21),16(20),17-octaene-14,3′-cyclopentane]-1′-yl]methanesulfonamide] | –
6 | 3.3 | 99 | CS(=O)(=O)N[C@H]1CC[C@@]2(Cc3ccc(C(F)F)c(c3)-c3cccc(F)c3OCc3coc2n3)C1 [Example 103, N-[(1′S,14R)-19-(difluoromethyl)-6-fluoro-spiro[8,12-dioxa-21-azatetracyclo[14.3.1.110,13.02,7]henicosa-1(19),2,4,6,10,13(21),16(20),17-octaene-14,3′-cyclopentane]-1′-yl]methanesulfonamide] | –
7 | 330 | 100 | CS(=O)(=O)N[C@H]1CC[C@@]2(Cc3cccc(c3)-c3cccc(n3)OCCc3coc2n3)C1 [Example 4, N-[(1′S,8R)-spiro[10,15-dioxa-20,21-diazatetracyclo[14.3.1.12,6.19,12]docosa-1(19),2(22),3,5,9(21),11,16(20),17-octaene-8,3′-cyclopentane]-1′-yl]methanesulfonamide] | –

Further lines, the compound ahead of its results:

Row | SMILES | EC50 [nM] | Emax [%] | Emax (%)
8 | C[C@@H]1C[C@@H](NS(C)(=O)=O)C[C@@]12Cc1ccc(F)c(c1)-c1ccccc1OCc1coc2n1 [Example 63, N-[(1′R,4′R,14S)-19-fluoro-4′-methyl-spiro[8,12-dioxa-21-azatetracyclo[14.3.1.110,13.02,7]henicosa-1(19),2,4,6,10,13(21),16(20),17-octaene-14,3′-cyclopentane]-1′-yl]methanesulfonamide or N-[(1′S,4′S,14R)-19-fluoro-4′-methyl-spiro[8,12-dioxa-21-azatetracyclo[14.3.1.110,13.02,7]henicosa-1(19),2,4,6,10,13(21),16(20),17-octaene-14,3′-cyclopentane]-1′-yl]methanesulfonamide] | 1.4 | – | 100
9 | Cc1oc2nc1COc1ccccc1-c1cc(ccc1F)C[C@@]21CC[C@H](NS(C)(=O)=O)C1 [Example 26, N-[(1′S,14R)-19-fluoro-11-methyl-spiro[8,12-dioxa-21-azatetracyclo[14.3.1.110,13.02,7]henicosa-1(19),2,4,6,10,13(21),16(20),17-octaene-14,3′-cyclopentane]-1′-yl]methanesulfonamide] | 0.19 | 95 | –
10 | C[C@@H]1C[C@@H](NS(C)(=O)=O)C[C@@]12Cc1ccc(F)c(c1)-c1ccccc1OCc1coc2n1 [Example 62, N-[(1′R,4′R,14S)-19-fluoro-4′-methyl-spiro[8,12-dioxa-21-azatetracyclo[14.3.1.110,13.02,7]henicosa-1(19),2,4,6,10,13(21),16(20),17-octaene-14,3′-cyclopentane]-1′-yl]methanesulfonamide or N-[(1′S,4′S,14R)-19-fluoro-4′-methyl-spiro[8,12-dioxa-21-azatetracyclo[14.3.1.110,13.02,7]henicosa-1(19),2,4,6,10,13(21),16(20),17-octaene-14,3′-cyclopentane]-1′-yl]methanesulfonamide] | 160 | – | 100
11 | CS(=O)(=O)N[C@H]1CC[C@@]2(Cc3ccc(F)c(c3)-c3cccc(F)c3OCC3=CN=C2O3)C1 [Example 7, N-[(1′S,14R)-6,19-difluorospiro[8,21-dioxa-12-azatetracyclo[14.3.1.110,13.02,7]henicosa-1(19),2,4,6,10,12,16(20),17-octaene-14,3′-cyclopentane]-1′-yl]methanesulfonamide] | 21 | 99 | –
12 | CS(=O)(=O)N[C@H]1CC[C@@]2(Cc3cc(ccc3F)-c3cccc(Cl)c3OCc3coc2n3)C1 [Example 29, N-[(1′S,14R)-6-chloro-17-fluoro-spiro[8,12-dioxa-21-azatetracyclo[14.3.1.110,13.02,7]henicosa-1(19),2,4,6,10,13(21),16(20),17-octaene-14,3′-cyclopentane]-1′-yl]methanesulfonamide] | 2 | 98 | –
13 | C[C@H]1C[C@H](NS(C)(=O)=O)C[C@]12Cc1ccc(F)c(c1)-c1cccc(F)c1OCc1coc2n1 [Example 61, N-[(1′S,4′S,14R)-6,19-difluoro-4′-methyl-spiro[8,12-dioxa-21-azatetracyclo[14.3.1.110,13.02,7]henicosa-1(19),2,4,6,10,13(21),16(20),17-octaene-14,3′-cyclopentane]-1′-yl]methanesulfonamide or N-[(1′R,4′R,14S)-6,19-difluoro-4′-methyl-spiro[8,12-dioxa-21-azatetracyclo[14.3.1.110,13.02,7]henicosa-1(19),2,4,6,10,13(21),16(20),17-octaene-14,3′-cyclopentane]-1′-yl]methanesulfonamide] | 140 | – | 96
14 | CS(=O)(=O)N[C@H]1CC[C@@]2(Cc3ccnc(c3)-c3cccc(F)c3OCc3coc2n3)C1 [Example 19, N-[(1′S,14R)-6-fluorospiro[8,12-dioxa-19,21-diazatetracyclo[14.3.1.110,13.02,7]henicosa-1(19),2,4,6,10,13(21),16(20),17-octaene-14,3′-cyclopentane]-1′-yl]methanesulfonamide] | 35 | 100 | –
15 | CS(=O)(=O)N[C@H]1CC[C@]2(CC1)Cc1ccc(F)c(c1)-c1cccc(F)c1OCc1coc2n1 [Example 97, trans-N-(6,19-difluorospiro[8,12-dioxa-21-azatetracyclo[14.3.1.110,13.02,7]henicosa-1(19),2,4,6,10,13(21),16(20),17-octaene-14,4′-cyclohexane]-1′-yl)methanesulfonamide] | 0.39 | 96 | –
16 | CS(=O)(=O)N[C@H]1CC[C@@]2(CO[C@H]3CC[C@H](CC3)c3cccc(c3)OCc3coc2n3)C1 [Example 41, N-[(1s,1′S,13S,16s)-spiro[7,11,15-trioxa-21-azatetracyclo[14.2.2.12,6.19,12]docosa-2,4,6(22),9,12(21)-pentaene-13,3′-cyclopentane]-1′-yl]methanesulfonamide] | 0.19 | 98 | –
